Assay results reported in ChEMBL document CHEMBL3991601, “The target landscape of clinical kinase drugs” (Science, 2017).
pKd: −log10 of the molar value. Activity calls are given as the source filed them.

Columns and labels:
[1] = target: T1, Long-chain-fatty-acid--CoA ligase 5 (Homo sapiens, UniProt Q9ULC5)
T1 sequence (Q9ULC5 whole entry): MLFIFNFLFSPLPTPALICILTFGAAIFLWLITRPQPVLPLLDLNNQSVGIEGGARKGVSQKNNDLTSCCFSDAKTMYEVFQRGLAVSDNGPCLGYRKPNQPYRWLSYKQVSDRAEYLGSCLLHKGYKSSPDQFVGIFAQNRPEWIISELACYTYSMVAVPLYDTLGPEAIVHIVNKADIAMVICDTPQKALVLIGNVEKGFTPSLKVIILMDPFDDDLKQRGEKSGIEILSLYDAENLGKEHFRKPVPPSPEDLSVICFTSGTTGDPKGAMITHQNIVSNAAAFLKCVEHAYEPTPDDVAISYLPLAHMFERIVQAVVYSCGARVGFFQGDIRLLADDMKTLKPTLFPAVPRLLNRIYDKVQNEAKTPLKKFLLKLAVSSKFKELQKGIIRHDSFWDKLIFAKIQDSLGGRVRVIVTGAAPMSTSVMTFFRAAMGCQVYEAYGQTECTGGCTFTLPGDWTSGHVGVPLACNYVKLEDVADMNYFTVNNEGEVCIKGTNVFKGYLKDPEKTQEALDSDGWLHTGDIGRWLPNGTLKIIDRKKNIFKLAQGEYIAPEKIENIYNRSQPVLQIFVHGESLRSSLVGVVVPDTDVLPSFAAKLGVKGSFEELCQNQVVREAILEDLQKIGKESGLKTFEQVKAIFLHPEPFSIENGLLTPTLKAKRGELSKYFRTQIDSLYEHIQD

[2] = target: Uncharacterized aarF domain-containing protein kinase 5 (Homo sapiens, UniProt Q3MIX3)
Ephrin type-A receptor 7 = Ephrin type-A receptor 7 (Homo sapiens, UniProt Q15375)
[3] = target: Mitogen-activated protein kinase 14 (Homo sapiens, UniProt Q16539)
[4] = target: Serine/threonine-protein kinase 38-like (Homo sapiens, UniProt Q9Y2H1)
[5] = target: T2, Dual specificity protein kinase TTK (Homo sapiens, UniProt P33981)
T2 sequence (P33981 whole entry): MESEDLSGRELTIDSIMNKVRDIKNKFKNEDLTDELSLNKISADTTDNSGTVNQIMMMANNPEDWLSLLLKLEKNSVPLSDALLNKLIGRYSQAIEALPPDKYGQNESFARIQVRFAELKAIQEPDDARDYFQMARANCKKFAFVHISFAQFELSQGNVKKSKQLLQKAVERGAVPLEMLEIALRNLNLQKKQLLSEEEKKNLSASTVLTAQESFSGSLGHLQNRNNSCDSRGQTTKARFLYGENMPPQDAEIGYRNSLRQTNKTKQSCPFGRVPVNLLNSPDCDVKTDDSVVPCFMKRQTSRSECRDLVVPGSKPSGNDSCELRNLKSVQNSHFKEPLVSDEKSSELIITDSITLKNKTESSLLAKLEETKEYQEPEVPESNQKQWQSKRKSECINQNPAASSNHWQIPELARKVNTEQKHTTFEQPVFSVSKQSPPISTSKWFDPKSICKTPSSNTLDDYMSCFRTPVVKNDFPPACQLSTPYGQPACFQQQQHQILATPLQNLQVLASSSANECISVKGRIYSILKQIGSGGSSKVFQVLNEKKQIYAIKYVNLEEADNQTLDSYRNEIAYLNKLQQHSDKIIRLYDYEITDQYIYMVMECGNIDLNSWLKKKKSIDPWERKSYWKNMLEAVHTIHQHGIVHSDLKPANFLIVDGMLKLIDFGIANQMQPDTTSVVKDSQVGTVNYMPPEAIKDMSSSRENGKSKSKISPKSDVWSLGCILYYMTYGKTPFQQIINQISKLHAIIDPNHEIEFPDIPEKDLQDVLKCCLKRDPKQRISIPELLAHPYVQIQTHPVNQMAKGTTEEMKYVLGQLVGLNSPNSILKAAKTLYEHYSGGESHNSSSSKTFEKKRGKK

[6] = target: T3, Isoleucine--tRNA ligase, mitochondrial (Homo sapiens, UniProt Q9NSE4)
T3 sequence (Q9NSE4 whole entry): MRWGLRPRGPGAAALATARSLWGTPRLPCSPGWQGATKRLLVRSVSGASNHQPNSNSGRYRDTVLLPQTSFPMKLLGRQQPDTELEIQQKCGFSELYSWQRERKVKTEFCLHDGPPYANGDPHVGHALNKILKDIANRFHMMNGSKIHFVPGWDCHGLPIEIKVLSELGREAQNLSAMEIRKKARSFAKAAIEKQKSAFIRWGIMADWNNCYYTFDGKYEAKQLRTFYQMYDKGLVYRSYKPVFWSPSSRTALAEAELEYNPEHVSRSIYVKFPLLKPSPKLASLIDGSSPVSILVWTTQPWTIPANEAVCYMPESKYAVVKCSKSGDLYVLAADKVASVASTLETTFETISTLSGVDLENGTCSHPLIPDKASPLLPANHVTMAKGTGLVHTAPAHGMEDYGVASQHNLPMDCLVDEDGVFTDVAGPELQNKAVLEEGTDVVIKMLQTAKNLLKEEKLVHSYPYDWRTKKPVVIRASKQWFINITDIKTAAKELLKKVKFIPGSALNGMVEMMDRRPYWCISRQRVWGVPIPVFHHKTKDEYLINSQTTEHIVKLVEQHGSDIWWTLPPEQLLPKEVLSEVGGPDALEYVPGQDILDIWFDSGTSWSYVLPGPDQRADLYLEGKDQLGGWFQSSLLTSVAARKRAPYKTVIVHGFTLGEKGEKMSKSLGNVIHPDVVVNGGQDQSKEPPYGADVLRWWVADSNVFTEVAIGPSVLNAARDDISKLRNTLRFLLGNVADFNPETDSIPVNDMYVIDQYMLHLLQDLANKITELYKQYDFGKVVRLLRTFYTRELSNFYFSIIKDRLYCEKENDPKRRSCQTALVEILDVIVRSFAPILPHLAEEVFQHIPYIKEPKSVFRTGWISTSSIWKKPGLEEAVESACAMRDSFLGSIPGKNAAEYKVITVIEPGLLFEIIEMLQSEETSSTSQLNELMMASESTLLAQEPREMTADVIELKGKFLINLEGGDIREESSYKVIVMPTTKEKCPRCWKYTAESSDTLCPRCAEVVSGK
Further: in the data inactive means no Kd found up to 30 µM.

Uncharacterized aarF domain-containing protein kinase 5, sequence (Q3MIX3 whole entry, the tested form may be a part): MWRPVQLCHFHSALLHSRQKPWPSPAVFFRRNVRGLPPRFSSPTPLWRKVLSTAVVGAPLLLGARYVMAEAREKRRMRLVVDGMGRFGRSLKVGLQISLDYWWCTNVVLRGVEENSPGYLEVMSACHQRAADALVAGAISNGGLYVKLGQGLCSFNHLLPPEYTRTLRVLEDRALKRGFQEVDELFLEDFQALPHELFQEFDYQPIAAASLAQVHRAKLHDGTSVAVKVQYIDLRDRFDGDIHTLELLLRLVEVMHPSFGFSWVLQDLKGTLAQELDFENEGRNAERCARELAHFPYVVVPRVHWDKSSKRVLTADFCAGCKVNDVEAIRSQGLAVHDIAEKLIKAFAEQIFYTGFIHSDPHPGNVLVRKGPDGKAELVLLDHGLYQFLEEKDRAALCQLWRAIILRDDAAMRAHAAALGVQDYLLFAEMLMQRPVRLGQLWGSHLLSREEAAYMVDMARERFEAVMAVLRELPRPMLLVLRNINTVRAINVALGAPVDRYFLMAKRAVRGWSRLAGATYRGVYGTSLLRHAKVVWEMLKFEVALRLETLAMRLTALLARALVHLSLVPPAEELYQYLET
Mitogen-activated protein kinase 14, sequence (Q16539 whole entry): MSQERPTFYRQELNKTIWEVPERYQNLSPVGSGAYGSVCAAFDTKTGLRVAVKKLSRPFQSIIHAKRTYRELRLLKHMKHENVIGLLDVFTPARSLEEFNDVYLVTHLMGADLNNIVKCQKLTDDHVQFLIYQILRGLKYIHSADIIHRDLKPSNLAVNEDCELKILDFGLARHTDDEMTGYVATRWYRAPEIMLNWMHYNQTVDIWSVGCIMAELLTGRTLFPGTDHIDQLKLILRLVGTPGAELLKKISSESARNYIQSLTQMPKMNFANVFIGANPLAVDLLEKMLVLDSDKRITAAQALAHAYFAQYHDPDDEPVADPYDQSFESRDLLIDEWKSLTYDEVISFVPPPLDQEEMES
Ephrin type-A receptor 7, sequence (Q15375 whole entry): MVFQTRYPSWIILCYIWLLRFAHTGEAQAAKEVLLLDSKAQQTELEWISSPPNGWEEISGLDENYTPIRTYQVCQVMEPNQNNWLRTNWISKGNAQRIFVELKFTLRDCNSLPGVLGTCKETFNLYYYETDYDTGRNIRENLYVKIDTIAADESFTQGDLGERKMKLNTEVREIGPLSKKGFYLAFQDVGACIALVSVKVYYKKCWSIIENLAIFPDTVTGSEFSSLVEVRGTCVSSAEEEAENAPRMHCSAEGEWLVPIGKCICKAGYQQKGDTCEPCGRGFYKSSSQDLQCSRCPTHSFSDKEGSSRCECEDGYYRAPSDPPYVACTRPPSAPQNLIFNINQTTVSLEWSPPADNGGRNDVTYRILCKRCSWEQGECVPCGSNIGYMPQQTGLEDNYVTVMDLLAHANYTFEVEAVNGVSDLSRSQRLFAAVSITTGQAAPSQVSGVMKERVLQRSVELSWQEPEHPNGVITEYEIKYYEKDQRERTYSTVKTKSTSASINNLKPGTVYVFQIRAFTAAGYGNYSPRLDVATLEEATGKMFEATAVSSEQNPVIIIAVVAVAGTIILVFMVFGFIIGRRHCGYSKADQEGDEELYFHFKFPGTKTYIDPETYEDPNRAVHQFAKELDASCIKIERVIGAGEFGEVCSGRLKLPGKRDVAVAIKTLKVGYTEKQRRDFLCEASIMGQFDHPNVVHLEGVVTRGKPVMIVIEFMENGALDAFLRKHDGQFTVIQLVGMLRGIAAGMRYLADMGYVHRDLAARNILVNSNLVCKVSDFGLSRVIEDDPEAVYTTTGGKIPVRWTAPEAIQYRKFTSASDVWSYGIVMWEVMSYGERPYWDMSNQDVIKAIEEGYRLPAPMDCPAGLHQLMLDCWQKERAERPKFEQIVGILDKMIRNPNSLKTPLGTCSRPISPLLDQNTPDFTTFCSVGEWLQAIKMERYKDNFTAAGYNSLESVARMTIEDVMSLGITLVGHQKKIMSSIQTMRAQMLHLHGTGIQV
Serine/threonine-protein kinase 38-like, sequence (Q9Y2H1 whole entry): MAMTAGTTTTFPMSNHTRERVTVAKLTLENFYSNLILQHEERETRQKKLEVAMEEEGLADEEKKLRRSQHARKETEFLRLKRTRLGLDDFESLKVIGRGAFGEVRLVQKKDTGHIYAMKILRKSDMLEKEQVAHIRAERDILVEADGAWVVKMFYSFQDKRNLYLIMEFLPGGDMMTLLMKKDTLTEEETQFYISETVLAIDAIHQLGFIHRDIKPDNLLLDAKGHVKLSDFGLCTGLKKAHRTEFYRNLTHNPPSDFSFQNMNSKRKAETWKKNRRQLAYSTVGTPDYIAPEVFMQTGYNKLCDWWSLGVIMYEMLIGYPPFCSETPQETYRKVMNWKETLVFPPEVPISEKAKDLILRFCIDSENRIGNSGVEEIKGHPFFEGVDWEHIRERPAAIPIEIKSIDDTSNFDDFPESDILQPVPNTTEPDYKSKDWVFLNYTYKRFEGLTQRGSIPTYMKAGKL

Structure (SMILES)	Kd [1]	Kd [2]	Kd (Ephrin type-A receptor 7)	Kd [3]	Kd [4]	Kd [5]	Kd [6]	pKd [5]	pKd [1]
Cc1cc(-c2cc(O)ccc2Cl)cc2nnc(Nc3ccc(OCCN4CCCC4)cc3)nc12	> 30 µM (inactive)	> 30 µM (inactive)	> 30 µM (inactive)	> 30 µM (inactive)	> 30 µM (inactive)	> 30 µM (inactive)	–	–	–
CNS(=O)(=O)Nc1nccc(Cc2c(C)c3ccc(Oc4ncccn4)cc3oc2=O)c1F [AVUTOMETINIB]	–	> 30 µM (inactive)	> 30 µM (inactive)	> 30 µM (inactive)	–	> 30 µM (inactive)	–	–	–
COC(=O)N[C@@H](C)CNc1nccc(-c2cn(C(C)C)nc2-c2cc(Cl)cc(NS(C)(=O)=O)c2F)n1 [ENCORAFENIB]	–	> 30 µM (inactive)	> 30 µM (inactive)	> 30 µM (inactive)	–	> 30 µM (inactive)	> 30 µM (inactive)	–	–
CO[C@H]1C[C@@H]2CC[C@@H](C)[C@@](O)(O2)C(=O)C(=O)N2CCCC[C@H]2C(=O)O[C@H]([C@H](C)C[C@@H]2CC[C@@H](OCCO)[C@H](OC)C2)CC(=O)[C@H](C)/C=C(\C)[C@@H](O)[C@@H](OC)C(=O)[C@H](C)C[C@H](C)/C=C/C=C/C=C/1C [EVEROLIMUS]	> 30 µM (inactive)	–	> 30 µM (inactive)	> 30 µM (inactive)	–	> 30 µM (inactive)	–	–	–
Cc1c(F)cc(C(=O)NC2CC2)cc1-c1ccc(C(=O)NCC(C)(C)C)cn1 [LOSMAPIMOD]	–	–	> 30 µM (inactive)	–	> 30 µM (inactive)	> 30 µM (inactive)	–	–	5.77
CNC(=O)c1cc(Oc2ccc(NC(=O)Nc3ccc(Cl)c(C(F)(F)F)c3)c(F)c2)ccn1 [REGORAFENIB]	> 30 µM (inactive)	–	–	0.705 µM (active)	–	–	> 30 µM (inactive)	5.41	–
CN(C)C(=O)c1cc2cnc(Nc3ccc(N4CCNCC4)cn3)nc2n1C1CCCC1 [RIBOCICLIB]	–	> 30 µM (inactive)	> 30 µM (inactive)	> 30 µM (inactive)	–	> 30 µM (inactive)	> 30 µM (inactive)	–	–
CN1CCC(CNc2ccc3ncc(-c4cccc(OC(F)(F)F)c4)n3n2)CC1 [SGI-1776]	> 30 µM (inactive)	–	> 30 µM (inactive)	> 30 µM (inactive)	–	> 30 µM (inactive)	> 30 µM (inactive)	–	–
C[C@@H]1CN(Cc2ccc(F)cc2)[C@@H](C)CN1C(=O)c1cc2c(C(=O)C(=O)N(C)C)cn(C)c2cc1Cl [TALMAPIMOD]	> 30 µM (inactive)	> 30 µM (inactive)	> 30 µM (inactive)	–	> 30 µM (inactive)	> 30 µM (inactive)	–	–	–
CC(=O)Nc1cccc(-n2c(=O)n(C3CC3)c(=O)c3c(Nc4ccc(I)cc4F)n(C)c(=O)c(C)c32)c1 [TRAMETINIB]	–	> 30 µM (inactive)	> 30 µM (inactive)	> 30 µM (inactive)	–	> 30 µM (inactive)	> 30 µM (inactive)	–	–

Second part, the compound after the results:

Kd [1]	Kd [2]	Kd (Ephrin type-A receptor 7)	Kd [3]	Kd [4]	Kd [5]	Kd [6]	pKd [5]	pKd [1]	Structure (SMILES)
> 30 µM (inactive)	> 30 µM (inactive)	> 30 µM (inactive)	> 30 µM (inactive)	> 30 µM (inactive)	> 30 µM (inactive)	–	–	–	CCN1CCN(Cc2ccc(-c3cc4c(N[C@H](C)c5ccccc5)ncnc4[nH]3)cc2)CC1 [AEE-788]
–	> 30 µM (inactive)	> 30 µM (inactive)	> 30 µM (inactive)	–	> 30 µM (inactive)	–	–	–	COc1cc(N2CCC(N3CCN(C)CC3)CC2)ccc1Nc1ncnc(Nc2ccccc2S(=O)(=O)C(C)C)n1 [ASP-3026]
> 30 µM (inactive)	> 30 µM (inactive)	> 30 µM (inactive)	> 30 µM (inactive)	> 30 µM (inactive)	> 30 µM (inactive)	–	–	–	Cc1cc([C@@H](C)Nc2ccccc2C(=O)O)c2nc(N3CCOCC3)cc(=O)n2c1 [AZD-6482]
–	–	–	> 30 µM (inactive)	–	–	> 30 µM (inactive)	7.80	–	Cc1nc(N)sc1-c1ccnc(Nc2ccc(N3CCOCC3)cc2)n1 [CYC-116]
> 30 µM (inactive)	> 30 µM (inactive)	–	–	–	> 30 µM (inactive)	> 30 µM (inactive)	–	–	Cc1cc(Nc2cc(N3CCN(C)CC3)nc(/C=C/c3ccccc3)n2)n[nH]1 [ENMD-2076]
